The results in this text go back to US6174909A, “4-aminotetrahydrobenzisoxazole or -isothiazole compounds” (H. Lundbeck A/S, priority 1995, dated 2001).

Experiment [1] has as its system GABA uptake in synaptosomes. Kind of experiment: GABA uptake inhibition in synaptosomes (overall, i.e. neuronal and glial). It counts as biochemical. The following applies: values marked * = Preliminary Data. Here is the method:
The inhibition of GABA Uptake was performed by the method described by Falch et. al, Drug Dev. Res., 1990,21, 169-188. By this method the overall, i.e. neuronal and glial, inhibition of GABA uptake is determined.

Experiment [2] relates to isoniazide induced convulsions in mice. Kind of experiment: Isoniazid antagonism (antagonism of isoniazide induced convulsions in mice). It counts as in vivo, mice (male NMRI/BOM). The following applies: Mus musculus, sc, 30 min before 300 mg isoniazide s.c., protected = no convulsions within 60 min, log probit analysis. The procedure:
The test is a test for antagonism of isoniazide induced convulsions in mice.
The test substance is given s.c. to mice (male NMRI/BOM, body weight 20-25 g) and 30 min later 300 mg isoniazide is given s.c. Five mice are used per dose and a control group only receiving isoniazide is included. This dose of isoniazide induces intermittent tonic seizures.
The animals are placed individually in Macrolon type II cages and the time when convulsions first occur is recorded. The experiment is stopped after 90 min. The animals that have not had convulsions within 60 min. are recorded as + (protected). The results, i.e. the number of protected mice pr number of tested mice are stated in fractions as follows: 0/5, 1/5 . . . , 5/5.

Structures can show the parent of a compound that is named as a salt.

One may read the IC50 as the concentration that gives 50% inhibition. In general, ED50 refers to the midpoint of the dose-response relation. The low end stands for greater potency, the high end for weaker potency. In turn, `Oc1noc2c1C(NCCC(c1ccccc1)c1ccccc1)CCC2` (racemic) [Compound 8i, (R,S)-4-(3,3-diphenylpropan-1-ylamind]-3-hydroxy-4,5,6,7-tetrahydro-1,2-benzisoxazole, hydrobromide] registered an IC50 in experiment [1] of 0.14 µM. This compound also showed an ED50 in experiment [2] of 310 µmol/kg.

In turn, `OCCNC1CCCc2onc(O)c21` (racemic) [Compound 9a, (R,S)-4-(2-Hydroxyethylamino)-3-hydroxy-4,5,6,7-tetrahydro-1,2-benzisoxazole, hydrobromide] registered an IC50 in experiment [1] of 180 µM. The compound also gave an ED50 in experiment [2] greater than 140 µmol/kg.

In turn, `CN(CCCC(c1ccc(F)cc1)c1ccc(F)cc1)C1CCCc2onc(O)c21` (racemic) [Compound 11a, (R,S)-^4-[N-[4,4-Bis(4-fluorophenyl)butan-1-yi]-N-methylamino]-3-hydroxy-4,5,6,7-tetrahydro-1,2-benzisoxazole, hydrobromide] came in with a concentration for half-maximal inhibition (IC50) in experiment [1] of 0.73 µM. This compound returned a 50% effective dose (ED50) in experiment [2] of 67 µmol/kg.

In turn, `CN(CCCC(c1ccccc1)c1ccccc1)C1CCCc2onc(O)c21` (racemic) [Compound 11b, (R,S)-4-[-N -(4,4-Diphenylbut-1-yl)-N-methylamino]-3-hydroxy-4,5,6,7-tetrahydro-1,2-benzisoxazole, hydrobromide] yielded an IC50 in experiment [1] of 0.41 µM. The ED50 in experiment [2] came out at 640 µmol/kg.

`CNC1CCCc2onc(OCOC(=O)C(C)(C)C)c21` (racemic) [Compound 14a, (R,S)-4-methylamino-3-pivaloyloxymethyloxy-4,5,6,7-tetrahydro-1,2-benzisoxazole, hemioxalate] registered a concentration for half-maximal inhibition (IC50) in experiment [1] greater than 300 µM. Further, in experiment [2], the ED50 came to 86 µmol/kg.

In the case of `CNC1CCCc2on(COC(=O)C(C)(C)C)c(=O)c21` (racemic) [Compound 14b, (R,S)-4-methylamino-2-pivaloyloxym ethyl-4,5,6,7-tetrahydro-1,2-benz isoxazol-3-one, hemioxalate], the IC50 in experiment [1] was greater than 300 µM. In experiment [2], the 50% effect level (ED50) was put at a dose of 220 µmol/kg.

Compound `CNC1CCCc2on(C(=O)Nc3ccccc3)c(=O)c21` (racemic) [Compound 15a, (R,S)-4-methylamino-2-phenylaminocarbonyl4,5,6,7-tetrahydro-1,2benzisoxazol-3-one, hydrochloride] had an IC50 in experiment [1] of 70 µM. Further, in experiment [2], the ED50 was greater than 120 µmol/kg.

In turn, `CNC(=O)n1oc2c(c1=O)C(NC)CCC2` (racemic) [Compound 15b] came in with an IC50 in experiment [1] of 80 µM. This compound also registered an ED50 in experiment [2] of 72 µmol/kg.

The compound `CNC1CCCc2on(C(=O)NCc3ccccc3)c(=O)c21` (racemic) [Compound 15c] gave a half-maximal inhibitory concentration (IC50) in experiment [1] of 84 µM. In experiment [2], this compound yielded an ED50 greater than 120 µmol/kg.

Turning to `CN(CCOC(c1ccc(F)cc1)c1ccc(F)cc1)C1CCCc2onc(O)c21` (racemic) [Compound 16a, (R,S)-4-[N-[bis(4-fluorophenyl)methyl-2-oxyethyl]-N-methylamino]-3-hydroxy-4,5,6,7-tetrahydro-1,2-benzisoxazole, sodium salt], the half-maximal inhibitory concentration (IC50) in experiment [1] is 4.5 µM. Besides, the ED50 in experiment [2] turned out to be 55 µmol/kg.

In experiment [1], `CN(CCOC(c1ccc(Cl)cc1)c1ccc(Cl)cc1)C1CCCc2onc(O)c21` (racemic) [Compound 16b, (R,S)-4-[N -[bis (4-chlorophenyl)methyl-2-oxyethyl]-N -methylamino]-3-hydroxy-4,5,6,7-tetrahydro-1,2-benzisoxazole, sodium salt] yielded an IC50 of 4.9 µM. The compound further came in with an ED50 in experiment [2] of 81 µmol/kg.

In turn, `CN(CCOC(c1ccccc1)c1ccccc1)C1CCCc2onc(O)c21` (racemic) [Compound 16c, (R,S)-4-[N-(diphenylmethyl-2-oxyethyl)-N-methylamino]-3-hydroxy-4,5,6,7-tetrahydro-1,2-benzisoxazole, hydrochloride] yielded an IC50 in experiment [1] of 0.36 µM. In experiment [2], this compound registered a median effective dose (ED50) of 160 µmol/kg.

In experiment [1], `Cc1ccsc1C(=CCCN(C)C1CCCc2onc(O)c21)c1sccc1C` (racemic) [Compound 16d, (R,S)-4-[N-(4,4-bis[3-methylthien-2-yl]-3-butenyl)-N-methylamino]-3-hydroxy-4,5,6,7-tetrahydro-1,2-benzisoxazole hydrochloride] gave a concentration for half-maximal inhibition (IC50) of 0.31 µM. This compound came in with an ED50 in experiment [2] of 63 µmol/kg.

Compound `CN(CCC=C(c1ccccc1)c1ccccc1)C1CCCc2onc(O)c21` (racemic) [Compound 20a, (R,S)-3-Hydroxy-4-[N-(4,4-diphenyl-3-butenyl)methylamino]4,5,6,7-tetrahydro-1,2-benzisoxazole, hydrochloride] came in with a concentration for half-maximal inhibition (IC50) in experiment [1] of 0.37 µM. This compound also had a 50% effective dose (ED50) in experiment [2] of 97 µmol/kg.

In turn, `CNC1CCCc2onc(OCOC(=O)c3c(C)cc(C)cc3C)c21` (racemic) [Compound 31b, (R,S)-4-Methylamino-3-(2,4,6-trimethylbenzoyloxymethyloxy)-4,5,6,7-tetrahydro-1,2-benzisoxazole, hemioxalate] came in with an IC50 in experiment [1] of 300 µM. The same compound displayed an ED50 in experiment [2] of 55 µmol/kg.

In the case of `Oc1noc2c1C(NCc1ccccc1)CCC2` (racemic) [Compound 41a, (R,S)-3-Hydroxy-4-benzylamino-4,5,6,7-tetrahydro-1,2-benzisoxazole hydrobromide], the IC50 in experiment [1] was 140 µM. The ED50 in experiment [2] amounted to 77 µmol/kg.

Take `Oc1noc2c1C(NCC(c1ccccc1)c1ccccc1)CCC2` (racemic) [Compound 41b, (R,S)-3-Hydroxy-4-(2,2-diphenylethylamino)-4,5,6,7-tetrahydro-1,2-benzisoxazole hydrobromide]: it took 22 µM to reach half-maximal inhibition in experiment [1] (IC50). The ED50 in experiment [2] was greater than 190 µmol/kg.

For `CNC1CCCc2onc(O)c21` (single isomer, unassigned; (+)) [Compound 6c, (+)-3-hydroxy-4-methylamino-4,5,6,7-tetrahydro-1,2-benzisoxazole, hydrobromide], the 50% inhibitory concentration (IC50) in experiment [1] (hydrobromide) was 42 µM. The ED50 in experiment [2] was greater than 320 µmol/kg.
